Data reported in patent US20100099845A1, “PROTECTED ENANTIOPURE TRIFLUOROTHREONINES AND METHODS OF MAKING AND USING SAME” (University of Utah Research Foundation, priority 2006, published 2010).

Experiments:
[1] = literature values of Kovacs, Mant, Hodges 2006; cited from earlier work
[2] = Relative hydrophobicity by reversed-phase HPLC retention time (method of Hodges and coworkers); format: physicochemical; conditions: for retention time, tR (measure of hydrophobicity): Kromasil C18, 0.2% TFA water/ACN linear gradient 0.25% ACN/min from 55% B, 0.3 mL/min, 25° C., co-injection, FIG. 4; for retention time difference ΔtR relative to allo-D-Thr/allo-L-Thr pair: same reversed-phase HPLC conditions, CF3 vs CH3
Experimental: As fluorination can decrease the hydrophilicity of a molecule [(a) Böhm, H-J.; Banner, D.; Bendels, S.; Kansy, M.; Kuhn, B.; Müller, K.; Obst-Sander, U.; Stahl, M. Chem BioChem. 2004, 5, 637-643. […] 1996, 276, 1049-1057.], the hydrophobicity of Fmoc-tfT (1a and 1b) relative to their non-fluorinated counterparts was determined. The chromatography method developed by Hodges and coworkers [Kovacs, J. M.; Mant, C. T.; Hodges, R. S. Biopolymers (Peptide Science) 2006, 84, 283-297.], who determined the relative hydrophobicity of 23 L-amino acids and their D-enantiomers, was used. As pointed out by Hodges and coworkers [Kovacs, J. M.; Mant, C. T.; Hodges, R. S. Biopolymers (Peptide Science) 2006, 84, 283-297.], a criterion for measuring true hydrophobicity of an amino acid is that the D/L enantiomers should give the same retention time, tR. […] All of the enantiomeric pairs, allo-D-Thr/allo-L-Thr (tR=7.2 min), D-Thr/L-Thr (tR=9.2 min) and allo-D-tfT/allo-L-tfT (tR=11.6 min), co-elute, satisfying the criterion established by Hodges and coworkers. [Kovacs, J. M.; Mant, C. T.; Hodges, R. S. Biopolymers (Peptide Science) 2006, 84, 283-297.] In reversed-phase chromatography, a larger retention time typically indicates a more hydrophobic molecule. The allo-D-tfT/allo-L-tfT pair is more retentive than the allo-D-Thr/allo-L-Thr pair (ΔtR=11.6−7.2=4.2 min). […] [Kovacs, J. M.; Mant, C. T.; Hodges, R. S. Biopolymers (Peptide Science) 2006, 84, 283-297.]
In FIG. 4, all chromatography runs followed exactly the same conditions used by Hodges and coworkers [Zhang, X. G.; Ni, W. J.; van der Donk, W. A. J. Org. Chem. 2005, 70, 6685-6692.]. The HPLC conditions are as follows: column, Kromasil C18 (150 mm×2.1 mm I.D., 5 μm, 100 Å pore size, Higgins Analytical, Inc., CA); mobile phase, A: 0.2% TFA (trifluoroacetic acid) in water, B: 0.2% TFA in ACN (acetonitrile); condition, linear AB gradient (0.25% ACN/min, starting from 55% B); flow rate, 0.3 mL/min; temperature, 25° C. 1a and 1b were purified by silica-gel column chromatography and dissolved in mobile phase B before injection. allo-D-N-Fmoc-O-tert-butyl-Thr and allo-L-N-Fmoc-O-tert-butyl-Thr were from BACHEM California Inc. D-N-Fmoc-O-tert-butyl-Thr and L-N-Fmoc-O-tert-butyl-Thr were from Novabiochem.

| SMILES | retention time, tR (measure of hydrophobicity) [2] [min] | also measured |
| --- | --- | --- |
| C[C@H](N)C(=O)O [Ala] |  | retention time difference ΔtR relative to Gly [1]: 2.8 min |
| N[C@@H](CS)C(=O)O [Cys, cysteine] |  | retention time difference ΔtR relative to Ala [1]: 4.8 min |
| C[C@H](OC(C)(C)C)[C@@H](NC(=O)OCC1c2ccccc2-c2ccccc21)C(=O)O [D-Thr, (2R,3S)-N-Fmoc-O-tert-butyl-threonine] | 9.2 |  |
| C[C@@H](OC(C)(C)C)[C@H](NC(=O)OCC1c2ccccc2-c2ccccc21)C(=O)O [L-Thr, (2S,3R)-N-Fmoc-O-tent-butyl-threonine] | 9.2 |  |
| CC(C)[C@H](N)C(=O)O [Val] |  | retention time difference ΔtR relative to Ala [1]: 10.6 min |
| C[C@@H](OC(C)(C)C)[C@@H](NC(=O)OCC1c2ccccc2-c2ccccc21)C(=O)O [allo-D-Thr, (2R,3R)-N-Fmoc-O-tert-butyl-threonine] | 7.2 |  |
| CC(C)(C)O[C@@H]([C@@H](NC(=O)OCC1c2ccccc2-c2ccccc21)C(=O)O)C(F)(F)F [allo-D-tfT, (2R,3S)-2-(((9H-fluoren-9-yl)methoxy)carbonylamino)-3-tert-butoxy-4,4,4-trifluorobutanoic acid] | 11.6 | retention time difference ΔtR relative to allo-D-Thr/allo-L-Thr pair [2]: 4.2 min |
| C[C@H](OC(C)(C)C)[C@H](NC(=O)OCC1c2ccccc2-c2ccccc21)C(=O)O [allo-L-Thr, (2S,3S)-N-Fmoc-O-tent-butyl-threonine] | 7.2 |  |
| CC(C)(C)O[C@H]([C@H](NC(=O)OCC1c2ccccc2-c2ccccc21)C(=O)O)C(F)(F)F [allo-L-tfT, (2S,3R)-4,4,4-trifluoro-N-Fmoc-O-tert-butyl-threonine] | 11.6 | retention time difference ΔtR relative to allo-D-Thr/allo-L-Thr pair [2]: 4.2 min |
